Where a name gives a salt, the structure may show the parent alone.
With COc1ccc(-c2nc3c(s2)CN(C(=O)CN2CC4CC2CN4c2ccc(C(F)(F)F)cn2)CC3)cc1 (centres unmarked) [compound 133, 1-[2-(4-methoxyphenyl)-6,7-dihydro-4H-thiazolo[5,4-c]pyridin-5-yl]-2-[5-(5-trifluoromethylpyridin-2-yl)-2,5-diazabicyclo[2.2.1]hept-2-yl]ethanone] as the compound, how does the melting point read?
Its melting point is 70 to 73 °C.

For C[C@@H]1CN(c2ccc(C(=O)O)cn2)C[C@H](C)N1CC(=O)N1CCc2nn(-c3ccccc3)cc2C1 (as salt: HCl) [compound 21, 6-{(3S,5R)-3,5-dimethyl-4-[2-oxo-2-(2-phenyl-2,4,6,7-tetrahydropyrazolo[4,3-c]pyridin-5-yl)ethyl]piperazin-1-yl}nicotinic acid], which melting point is on record?
The melting point was 209 to 211 °C.

Which melting point does the source give for O=C(CN1CCN(c2ccnc3cc(Cl)ccc23)CC1)N1CCc2nn(-c3ccccc3)cc2C1 [compound 113, 2-[4-(7-chloroquinolin-4-yl)piperazin-1-yl]-1-(2-phenyl-2,4,6,7-tetrahydropyrazolo[4,3-c]pyridin-5-yl)ethanone] here?
The melting point was 100 to 101 °C.

With C[C@@H]1CN(c2cncnc2)C[C@H](C)N1CC(=O)N1CCc2nn(-c3ccccc3)cc2C1 (as salt: HCl) [compound 16, 2-((2S,6R)-2,6-dimethyl-4-pyrimidin-5-yl-piperazin-1-yl)-1-(2-phenyl-2,4,6,7-tetrahydropyrazolo[4,3-c]pyridin-5-yl)ethanone] as the compound, how does the melting point read?
The melting point was 166 to 167 °C.

For C[C@@H]1CN(c2cncnc2)C[C@H](C)N1CC(=O)N1CCc2nc(-c3ccccc3)sc2C1 [compound 22, 2-((2S,6R)-2,6-dimethyl-4-pyrimidin-5-yl-piperazin-1-yl)-1-(2-phenyl-6,7-dihydro-4H-thiazolo[5,4-c]pyridin-5-yl)ethanone], which melting point is on record?
The melting point was 215 to 216 °C.

Which melting point does the source give for C[C@@H]1CN(c2ccc(C(F)(F)F)cn2)C[C@H](C)N1CC(=O)N1CCc2nn(CC(F)(F)F)cc2C1 (as salt: oxalate) [compound 126, 2-[(2S,6R)-2,6-dimethyl-4-(5-trifluoromethylpyridin-2-yl)piperazin-1-yl]-1-[2-(2,2,2-trifluoroethyl)-2,4,6,7-tetrahydropyrazolo[4,3-c]pyridin-5-yl]ethanone] here?
Its melting point is 151 to 153 °C.

With O=C(CN1CC2CCC(C1)N2c1cncnc1)N1CCc2nn(-c3ccccc3)cc2C1 as the compound, how does the melting point read?
Its melting point is 197 to 198 °C.

For COc1ccc(-c2nc3c(s2)CN(C(=O)CN2CC4CCC(C2)N4c2ncc(F)cn2)CC3)cc1, which melting point is on record?
Its melting point is 203 to 207 °C.

With COC(=O)c1ccc(N2CC3CCC(C2)N3CC(=O)N2CCc3nn(-c4ccccc4)cc3C2)nc1 as the compound, how does the melting point read?
The melting point was 157 to 158 °C.

With O=C(CN1CC2CC1CN2c1ccc(C(F)(F)F)cn1)N1CCc2nn(-c3ccccc3)cc2C1 (centres unmarked) [compound 127, 1-(2-phenyl-2,4,6,7-tetrahydropyrazolo[4,3-c]pyridin-5-yl)-2-[5-(5-trifluoromethylpyridin-2-yl)-2,5-diazabicyclo[2.2.1]hept-2-yl]ethanone] as the compound, how does the melting point read?
The melting point was 174 to 175 °C.

With C[C@@H]1CN(c2ccc(C(F)(F)F)cn2)C[C@H](C)N1CC(=O)N1CCc2nn(C)cc2C1 (as salt: HCl) [compound 100, 2-[(2S,6R)-2,6-dimethyl-4-(5-trifluoromethylpyridin-2-yl)piperazin-1-yl]-1-(2-methyl-2,4,6,7-tetrahydropyrazolo[4,3-c]pyridin-5-yl)ethanone] as the compound, how does the melting point read?
The melting point was 50 to 51 °C.

For Cc1nc2c(s1)CN(C(=O)CN1CC3CCC(C1)N3c1ncc(F)cn1)CC2, which melting point is on record?
The melting point was 137 to 138 °C.

For N#Cc1ccc(N2C3CCC2CN(CC(=O)N2CCc4nc(-c5ccc(F)cc5)sc4C2)C3)nc1, which melting point is on record?
Its melting point is 212 to 213 °C.

For O=C(O)c1ccc(N2CC3CCC(C2)N3CC(=O)N2CCc3nc(-c4ccccc4)sc3C2)nc1, which melting point is on record?
The melting point was 250 to 251 °C.

Which melting point does the source give for C[C@@H]1CN(CC(=O)N2CCc3nc(-c4ccccc4)sc3C2)[C@@H](C)CN1c1ccc(C#N)cn1 [compound 59, 6-{(2R,5S)-2,5-dimethyl-4-[2-oxo-2-(2-phenyl-6,7-dihydro-4H-thiazolo[5,4-c]pyridin-5-yl)ethyl]piperazin-1-yl}nicotinonitrile] here?
The melting point was 159 to 160 °C.

Which melting point does the source give for C[C@@H]1CN(c2ccc(C(=O)O)cn2)C[C@H](C)N1CC(=O)N1CCc2nn(C(C)(C)C)cc2C1 [compound 105, 6-{(3S,5R)-4-[2-(2-tert-butyl-2,4,6,7-tetrahydropyrazolo[4,3-c]pyridin-5-yl)-2-oxoethyl]-3,5-dimethylpiperazin-1-yl}nicotinic acid] here?
The melting point was 120 to 121 °C.

With O=C(CN1CCCN(c2cccnc2)CC1)N1CCc2nc(-c3ccccc3)sc2C1 (as salt: HCl) [compound 30, 1-(2-phenyl-6,7-dihydro-4H-thiazolo[5,4-c]pyridin-5-yl)-2-(4-pyridin-3-yl-[1,4]diazepan-1-yl)ethanone] as the compound, how does the melting point read?
The melting point was 142 to 145 °C.

With C[C@@H]1CN(c2cccnc2)C[C@H](C)N1CC(=O)N1CCc2nn(-c3ccc(F)cn3)cc2C1 [compound 142, 2-((2S,6R)-2,6-dimethyl-4-pyridin-3-ylpiperazin-1-yl)-1-[2-(5-fluoropyridin-2-yl)-2,4,6,7-tetrahydropyrazolo[4,3-c]pyridin-5-yl]ethanone] as the compound, how does the melting point read?
The melting point was 180 to 181 °C.

Which melting point does the source give for O=C(CN1CCN(c2ccc(C(F)(F)F)cn2)C(=O)C1)N1CCc2nn(-c3ccc(C(F)(F)F)cn3)cc2C1 [compound 65, 4-{2-oxo-2-[2-(5-trifluoromethylpyridin-2-yl)-2,4,6,7-tetrahydropyrazolo[4,3-c]pyridin-5-yl]ethyl}-1-(5-trifluoromethylpyridin-2-yl)piperazin-2-one] here?
The melting point was 200 to 201 °C.

With C[C@@H]1CN(CC(=O)N2CCc3nn(-c4ccccc4)cc3C2)[C@@H](C)CN1c1ccc(C#N)cn1 [compound 52, 6-{(2R,5S)-2,5-dimethyl-4-[2-oxo-2-(2-phenyl-2,4,6,7-tetrahydropyrazolo[4,3-c]pyridin-5-yl)ethyl]piperazin-1-yl}nicotinonitrile] as the compound, how does the melting point read?
The melting point was 156 to 159 °C.

For COc1ccc(-n2ncc3c2CCN(C(=O)CN2CC4CCC(C2)N4c2ncc(F)cn2)C3)cc1, which melting point is on record?
The melting point was 194 to 195 °C.

With C[C@@H]1CN(c2ccc(C(=O)O)cn2)C[C@H](C)N1CC(=O)N1CCc2nc(-c3ccccc3)[nH]c2C1 [compound 116, 6-{(3S,5R)-3,5-dimethyl-4-[2-oxo-2-(2-phenyl-3,4,6,7-tetrahydroimidazo[4,5-c]pyridin-5-yl)ethyl]piperazin-1-yl}nicotinic acid] as the compound, how does the melting point read?
Its melting point is 190 to 192 °C.

With O=C(CN1CC2CCC(C1)N2c1ncc(F)cn1)N1CCc2cc(-c3ccccc3)oc2C1 as the compound, how does the melting point read?
Its melting point is 165 to 167 °C.

With O=C(CN1CC2CCC(C1)N2c1ncc(F)cn1)N1CCc2oc(-c3ccccc3)nc2C1 as the compound, how does the melting point read?
The melting point was 88 to 89 °C.

Which melting point does the source give for C[C@@H]1CN(c2cccnc2)C[C@H](C)N1CC(=O)N1CCc2nn(-c3ccncc3)cc2C1 [compound 141, 2-((2S,6R)-2,6-dimethyl-4-pyridin-3-ylpiperazin-1-yl)-1-(2-pyridin-4-yl-2,4,6,7-tetrahydropyrazolo[4,3-c]pyridin-5-yl)ethanone] here?
The melting point was 163 to 164 °C.

For C[C@@H]1CN(c2ccc(C(F)(F)F)nc2)C[C@H](C)N1CC(=O)N1CCc2nn(-c3ccccc3)cc2C1 [compound 20, 2-[(2S,6R)-2,6-dimethyl-4-(6-trifluoromethylpyridin-3-yl)piperazin-1-yl]-1-(2-phenyl-2,4,6,7-tetrahydropyrazolo[4,3-c]pyridin-5-yl)ethanone], which melting point is on record?
Its melting point is 174 to 175 °C.

Which melting point does the source give for O=C(CN1CC2CCC(C1)N2c1ccc(C(F)(F)F)cn1)N1CCc2nc(-c3ccncc3)sc2C1 here?
Its melting point is 183 to 185 °C.

Which melting point does the source give for C[C@@H]1CN(c2ccc(C(=O)O)cn2)C[C@H](C)N1CC(=O)N1CCc2c(cnn2C(C)(C)C)C1 [compound 93, 6-{(3S,5R)-4-[2-(1-tert-butyl-1,4,6,7-tetrahydropyrazolo[4,3-c]pyridin-5-yl)-2-oxoethyl]-3,5-dimethylpiperazin-1-yl}nicotinic acid] here?
The melting point was 150 to 151 °C.

For O=C(CN1CC2CCC(C1)N2c1cccnc1)N1CCc2nn(-c3ccc(C(F)(F)F)cn3)cc2C1, which melting point is on record?
The melting point was 150 to 151 °C.

For C[C@@H]1CN(c2ccc(-c3nccs3)cn2)C[C@H](C)N1CC(=O)N1CCc2nn(-c3ccccc3)cc2C1 [compound 135, 2-[(2S,6R)-2,6-dimethyl-4-(5-thiazol-2-ylpyridin-2-yl)piperazin-1-yl]-1-(2-phenyl-2,4,6,7-tetrahydropyrazolo[4,3-c]pyridin-5-yl)ethanone], which melting point is on record?
Its melting point is 173 to 174 °C.

With O=C(CN1CC2CCC(C1)N2c1ccc(-c2nnn[nH]2)cn1)N1CCc2nc(-c3ccccc3)sc2C1 as the compound, how does the melting point read?
The melting point was 201 to 202 °C.

For Cn1cc2c(n1)CCN(C(=O)CN1CC3CCC(C1)N3c1ccc(C(F)(F)F)cn1)C2, which melting point is on record?
The melting point was 70 to 71 °C.

For O=C(CN1CCN(c2ccc(-c3ccn[nH]3)cn2)CC1)N1CCc2nc(-c3ccccc3)sc2C1 [compound 134, 1-(2-phenyl-6,7-dihydro-4H-thiazolo[5,4-c]pyridin-5-yl)-2-{4-[5-(2H-pyrazol-3-yl)pyridin-2-yl]piperazin-1-yl}ethanone], which melting point is on record?
The melting point was 231 to 237 °C.

With O=C(CN1CC2CCC(C1)N2c1ccc(C(F)(F)F)cn1)N1CCc2nn(-c3ccccc3)cc2C1 as the compound, how does the melting point read?
The melting point was 212 to 213 °C.

Which melting point does the source give for O=C(CN1CCN(c2ccc(C(F)(F)F)cn2)C(=O)C1)N1CCc2c(cnn2CC(F)(F)F)C1 (as salt: oxalate) [compound 66, 4-{2-oxo-2-[1-(2,2,2-trifluoroethyl)-1,4,6,7-tetrahydropyrazolo[4,3-c]pyridin-5-yl]ethyl}-1-(5-trifluoromethylpyridin-2-yl)piperazin-2-one] here?
The melting point was 82 to 83 °C.

For O=C(CN1CCN(c2ccc(C(F)(F)F)cn2)C(=O)C1)N1CCc2sc(-c3ccccc3)nc2C1 [compound 82, 4-[2-oxo-2-(2-phenyl-6,7-dihydro-4H-thiazolo[4,5-c]pyridin-5-yl)ethyl]-1-(5-trifluoromethylpyridin-2-yl)piperazin-2-one], which melting point is on record?
Its melting point is 140 to 142 °C.

Which melting point does the source give for O=C(CN1CC2CCC(C1)N2c1ccc(C(F)(F)F)cn1)N1CCc2nc(-c3ccccc3)[nH]c2C1 here?
Its melting point is 150 to 152 °C.

Which melting point does the source give for O=C(CN1CC2CCC(C1)N2c1ncc(F)cn1)N1CCc2c(cnn2-c2ccc(F)cc2)C1 here?
The melting point was 151 to 152 °C.

Reference: patent US8580790B2, “(Heterocycle/condensed piperidine)-(piperazinyl)-1-alkanone or (heterocycle/condensed pyrrolidine)-(piperazinyl)-1-alkanone derivatives and use thereof as p75 inhibitors” (Sanofi, priority 2009, dated 2013)
